According to ChEMBL document CHEMBL1201862, “PubChem BioAssay data set” (2004):
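Tested at 5 concentrations; 48 h exposure; 96-well plates; endpoints linearly interpolated, else capped at highest concentration. GI50 is the concentration that inhibits growth by half.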 Calls of active or inactive are those of the source. Cut-off read from the data, not from the text of the source: active = GI50 up to about 1.1 µM and inactive = higher.

Legend:
Assay in all cases: NCI-60 cell line screen, 48 h
SK-MEL-28 = system: SK-MEL-28
T47D = system: T47D
Malme-3M = system: Malme-3M
OVCAR-4 = system: OVCAR-4
UO-31 = system: UO-31
K562 = system: K562
MDA-MB-435 = system: MDA-MB-435
M14 = system: M14
HCC 2998 = system: HCC 2998
RXF 393 = system: RXF 393
NCI-H522 = system: NCI-H522
CAKI-1 = system: CAKI-1
NCI-H460 = system: NCI-H460
MCF7 = system: MCF7
Hs-578T = system: Hs-578T
SW-620 = system: SW-620
ACHN = system: ACHN
SNB-75 = system: SNB-75
EKVX = system: EKVX
SNB-19 = system: SNB-19
NCI-H226 = system: NCI-H226
CCRF-CEM = system: CCRF-CEM
SK-MEL-5 = system: SK-MEL-5
DU-145 = system: DU-145
786-0 = system: 786-0
MDA-MB-231 = system: MDA-MB-231
TK-10 = system: TK-10
U-251 = system: U-251
NCI-H23 = system: NCI-H23
HT-29 = system: HT-29
LOX IMVI = system: LOX IMVI
OVCAR-5 = system: OVCAR-5
A549 = system: A549
HOP-62 = system: HOP-62
OVCAR-8 = system: OVCAR-8
RPMI-8226 = system: RPMI-8226
SN12C = system: SN12C
UACC-257 = system: UACC-257
OVCAR-3 = system: OVCAR-3
SK-OV-3 = system: SK-OV-3
PC-3 = system: PC-3
A498 = system: A498
MOLT-4 = system: MOLT-4
SF-268 = system: SF-268
SF-295 = system: SF-295
NCI/ADR-RES = system: NCI/ADR-RES
SK-MEL-2 = system: SK-MEL-2
KM12 = system: KM12
HCT-116 = system: HCT-116
COLO 205 = system: COLO 205
HCT-15 = system: HCT-15
HOP-92 = system: HOP-92
IGROV-1 = system: IGROV-1
SF-539 = system: SF-539
UACC-62 = system: UACC-62

CC(=O)O[C@H]1C(=O)[C@@]2(C)C(C(OC(=O)c3ccccc3)[C@]3(O)CC(OC(=O)[C@H](OC(=O)CCC(=O)O)C(NC(=O)c4ccccc4)c4ccccc4)C(C)=C1C3(C)C)C1(OC(C)=O)COC1C[C@@H]2OC(=O)CCC(=O)O (stereo not given in full)
GI50 (SK-MEL-28): 5.6 µM (inactive) | GI50 (T47D): 0.822 µM (active) | GI50 (Malme-3M): 11.6 µM (inactive) | GI50 (OVCAR-4): > 79.4 µM (inactive) | GI50 (UO-31): 83.9 µM (inactive)

NC(=O)CC(N)C(=O)NC(Cc1ccccc1)C(=O)NC(Cc1ccccc1)NC(=O)C(Cc1c[nH]c2ccccc12)C(=O)O (stereo not given)
GI50 (K562): > 100 µM (inactive) | GI50 (MDA-MB-435): > 100 µM (inactive) | GI50 (M14): > 100 µM (inactive) | GI50 (HCC 2998): > 100 µM (inactive) | GI50 (RXF 393): > 100 µM (inactive) | GI50 (NCI-H522): > 100 µM (inactive) | GI50 (CAKI-1): > 100 µM (inactive) | GI50 (NCI-H460): > 100 µM (inactive) | GI50 (MCF7): > 100 µM (inactive) | GI50 (Hs-578T): > 100 µM (inactive) | GI50 (SW-620): > 100 µM (inactive) | GI50 (ACHN): > 100 µM (inactive) | GI50 (SK-MEL-28): > 100 µM (inactive) | GI50 (T47D): > 100 µM (inactive) | GI50 (SNB-75): 71.8 µM (inactive) | GI50 (EKVX): > 100 µM (inactive) | GI50 (SNB-19): > 100 µM (inactive) | GI50 (NCI-H226): > 100 µM (inactive) | GI50 (CCRF-CEM): > 100 µM (inactive) | GI50 (SK-MEL-5): 49.4 µM (inactive) | GI50 (DU-145): > 100 µM (inactive) | GI50 (786-0): > 100 µM (inactive) | GI50 (MDA-MB-231): > 100 µM (inactive) | GI50 (TK-10): > 100 µM (inactive) | GI50 (U-251): > 100 µM (inactive) | GI50 (NCI-H23): > 100 µM (inactive) | GI50 (HT-29): > 100 µM (inactive) | GI50 (LOX IMVI): > 100 µM (inactive) | GI50 (OVCAR-5): > 100 µM (inactive) | GI50 (A549): > 100 µM (inactive) | GI50 (HOP-62): > 100 µM (inactive) | GI50 (OVCAR-8): > 100 µM (inactive) | GI50 (RPMI-8226): > 100 µM (inactive) | GI50 (Malme-3M): > 100 µM (inactive) | GI50 (SN12C): > 100 µM (inactive) | GI50 (OVCAR-4): > 100 µM (inactive) | GI50 (UACC-257): > 100 µM (inactive) | GI50 (OVCAR-3): > 100 µM (inactive) | GI50 (SK-OV-3): > 100 µM (inactive) | GI50 (PC-3): > 100 µM (inactive) | GI50 (A498): > 100 µM (inactive) | GI50 (MOLT-4): > 100 µM (inactive) | GI50 (SF-268): > 100 µM (inactive) | GI50 (SF-295): > 100 µM (inactive) | GI50 (NCI/ADR-RES): > 100 µM (inactive) | GI50 (SK-MEL-2): > 100 µM (inactive) | GI50 (KM12): > 100 µM (inactive) | GI50 (HCT-116): > 100 µM (inactive) | GI50 (COLO 205): > 100 µM (inactive) | GI50 (HCT-15): > 100 µM | GI50 (HOP-92): > 100 µM (inactive) | GI50 (UO-31): > 100 µM (inactive) | GI50 (IGROV-1): > 100 µM (inactive) | GI50 (SF-539): > 100 µM (inactive) | GI50 (UACC-62): > 100 µM (inactive)
